In article PMC7754409 (Journal of Clinical Pharmacology, 2020):
Where two headings read alike, the source gives them in different places.

How the values were obtained:
[1] = assay type: in vivo, human; conditions: for AUC(0-inf): human, plasma, AUCinf, GM (CV%), total AUCinf; for distribution of exposure (AUCinf, Cmax) across Child-Pugh classifications: subjects with normal NCIc, box plots Figures 2A, 3
[2] = cited from earlier work
[3] = any degree of HI based on Child-Pugh
[4] = Child-Pugh mild and moderate HI

| SMILES | AUC(0-inf) ([1]; Child-Pugh mild HI group) | AUC(0-inf) ([1]; Child-Pugh moderate HI group) | AUC(0-inf) ([1]; NCIc mild group) | AUC(0-inf) ([1]; NCIc moderate group) | AUC(0-inf) ([1]; NCIc normal group) | distribution of exposure (AUCinf, Cmax) across Child-Pugh classifications [1] | effect of HI on axitinib exposure (Cmax and AUCinf) versus normal ([2]; Child-Pugh mild HI) | higher AUCinf (exposure) compared with normal ([2]; Child-Pugh moderate HI) | higher AUCinf compared with normal NCIc hepatic function ([1]; NCIc mild HI) | AUC(0-inf) ([1]; Child-Pugh severe HI group) | AUC(0-inf) ([1]; NCIc severe group) | AUCinf in Child-Pugh mild HI compared with Child-Pugh normal ([1]; within subjects with normal NCI hepatic function) | higher exposure compared with normal hepatic function [2, 3] | plasma elimination half-life compared with normal hepatic function [2, 3] | exposure (AUCinf and Cmax) of mild and moderate groups compared with normal hepatic function ([1]; based on either classification system (Child-Pugh or NCIc)) | effect of HI on dacomitinib exposure versus normal [2, 4] | unbound AUCinf of mild group compared with normal hepatic function ([1]; via either classification (Child-Pugh or NCIc)) | mean fraction unbound in plasma ([2]; across Child-Pugh hepatic function groups) | effect of HI on sunitinib exposure (AUCinf and Cmax) versus normal [2, 4] |
| --- | --- | --- | --- | --- | --- | --- | --- | --- | --- | --- | --- | --- | --- | --- | --- | --- | --- | --- | --- |
| CNC(=O)c1ccccc1Sc1ccc2c(/C=C/c3ccccn3)n[nH]c2c1 [Axitinib, axitinib] | 122 ng·h/mL | 304 ng·h/mL | 210 ng·h/mL | 410 ng·h/mL | 137 ng·h/mL | appeared similar | did not affect | 2 fold | – | – | – | – | – | – | – | – | – | – | – |
| COc1cc(Nc2c(C#N)cnc3cc(OCCCN4CCN(C)CC4)c(OC)cc23)c(Cl)cc1Cl [Bosutinib, bosutinib] | 1940 ng·h/mL | 1730 ng·h/mL | 1580 ng·h/mL | 1860 ng·h/mL | 1130 ng·h/mL | higher exposure | – | – | 40% | 1660 ng·h/mL | 1350 ng·h/mL | ~2 fold | ~2 fold | longer | – | – | – | – | – |
| COc1cc2ncnc(Nc3ccc(F)c(Cl)c3)c2cc1NC(=O)/C=C/CN1CCCCC1 [Dacomitinib, dacomitinib] | 811 ng·h/mL | 682 ng·h/mL | 753 ng·h/mL | 583 ng·h/mL | 800 ng·h/mL | – | – | – | – | – | 685 ng·h/mL | – | – | – | similar | did not alter | – | – | – |
| CC(=O)c1c(C)c2cnc(Nc3ccc(N4CCNCC4)cn3)nc2n(C2CCCC2)c1=O [Palbociclib, palbociclib] | – | – | – | – | – | – | – | – | – | – | – | – | – | – | – | – | overall similar | increased with worsening hepatic function | – |
| CCN(CC)CCNC(=O)c1c(C)[nH]c(/C=C2\C(=O)Nc3ccc(F)cc32)c1C [Sunitinib, sunitinib] | 1510 ng·h/mL | 1480 ng·h/mL | 1690 ng·h/mL | 1530 ng·h/mL | 1340 ng·h/mL | – | – | – | – | – | – | – | – | – | – | – | – | – | did not alter |
